Measurements taken from patent publication US20240000811A1, “INOSITOL HEXAKISPHOSPHATE ANALOGUES FOR TREATMENT OF CALCIFICATION ASSOCIATED KIDNEY DISEASES” (INOSITEC AG, priority 2020, published 2024).

What was measured:
[1] = In-solution screening: CaP precipitation and aggregation in artificial renal tubular fluid (RTF); conditions: 9 mM phosphate, 8 mM calcium, 4 h, RT
Experimental: An artificial renal tubular fluid (RTF) with a final composition of 0.05 mM oxalate, 0.005 mM sulphate, 408 mM sodium, 424 mM chloride, 0.26 mM potassium, 4 mM magnesium and 0.2 mM citrate in double distilled water was prepared according to a literature report (Fasano, J. M. et al., Kidney Int. 59, 169-178. DOI: 10.1046/j.1523-1755.2001.00477.x, 2001). The solution was filtered with a 0.45-μm syringe filter. Twenty mM Bis-Tris buffer was added to the reported protocol to ensure pH stability throughout experiments and pH was set to 7.2. The artificial RTF was stored at room temperature for up to four months. Stock solutions of 0.25 M phosphate and 1 M calcium were prepared in double distilled water and were stored separately at −20° C.
Twenty-x final concentration phosphate, 20× final concentration calcium and 10× final concentration compound dilutions were prepared in RTF. Assay mixture consisting of 80% RTF, 10% compound dilution, 5% phosphate dilution and 5% calcium dilution was prepared in Eppendorf tubes as follows. RTF (320 μL) was mixed with 20 μL phosphate dilution (final concentration of 9 mM), 40 μL compound dilution and 20 μL calcium dilution (final concentration of 8 mM). The assay mixture was vortexed after adding each component and 380 μL of the mixture were immediately added to 8-well glass bottom slides and incubated for 4 hat RT. CaP precipitation was assessed using a Leica DM 6000B microscope (Leica Microsystems, Wetzlar, Germany) in brightfield mode. For quantification 3 wells/condition with 3-4 images/well were imaged with a 40× objective. The total area covered with CaP deposits in percentage of the field of view and the mean size of CaP aggregates were determined.
In a first step, the influence of selected IP6 analogues (FIG. 3) on CaP precipitation and growth was assessed in vitro using artificial renal tubular fluid (RTF) (Table 1). In a previous study, the inventors investigated CaP protein particle formation in serum. However, an important difference to cardiovascular calcification lies in the extremely low protein content of the renal tubular fluid vs. the high abundance of proteins in blood, which can stabilize amorphous particles. Two cut-offs were chosen for assessing efficacy. First, complete inhibition was defined as a >90% reduction of detected CaP precipitates compared to the control sample without compound.

[2] = tested on: RPTEC/TERT 1 human proximal tubule cells; assay: Imaging assay: CaP adhesion/deposition and cellular changes on RPTEC monolayers treated with 5/7 mM Ca/P; assay type: cell-based; conditions: 7 mM phosphate, 5 mM calcium, 24 h
Experimental: RPTEC/TERT 1 human proximal tubule cells (RPTEC) were cultured in T75 tissue culture flasks using ProxUp basal medium mixed with ProxUp supplements at 37° C. and 5% CO2 according to manufacturer's recommendations. Cells were used up to passage 30 and regularly tested for Mycoplasma infections. For experiments, RPTEC were cultured in 24-well plates at a seeding density of 150′000 cells/cm^2. Cell viability assessment and cell counting before seeding was performed using an automated cell counter (BioRad TC 20, Hercules, CA, USA).
For the comparison of selected IP6 analogues, ProxUp basal medium was prepared with the selected inhibitor and added to each well. Then, CaP precipitation was induced by direct addition of first, phosphate and second, calcium. Final concentrations of 7 mM phosphate and 5 mM calcium were used. Cells were incubated for 24 h at 37° C. and 5% CO2. Spiked medium was removed, and cells were washed twice with PBS before staining.
For staining, ProxUp basal medium was mixed with calcein (500 nM final concentration), EthD (6 μM final concentration), CellMask stain ([…]) and Hoechst 33342. Staining mixture was added to RPTEC and cells were incubated for 30 min in the dark at 37° C. and 5% CO2. Staining solution was removed, cells were washed with PBS once and ProxUp basal medium was added. Cells were immediately imaged after staining. Images were obtained by epifluorescence microscopy at 37° C., using a Leica CTR6000 microscope. For quantification 3 wells/condition were prepared and 3 images/well were taken. For preliminary adhesion experiments images were taken with a 10× objective, for the imaging assay 20× objective images were taken.
Multichannel images were saved as individual channel images in 8-bit tiff format. For analysis Hoechst channel images were thresholded using the triangle threshold. Touching nuclei of the binary image were further segmented using the watershed algorithm with the distance transform of the binary image as input and local maxima thereof as seeds.
For EthD channel images, high level of background noise was observed, potentially as a result of fluorescence of the CellMask stain bleeding through. […] A fixed minimum threshold was set at 60. Watershed segmentation similar to the Hoechst channel was performed to segment touching objects. For the calcein channel images adaptive thresholding by triangle thresholding achieved good detection of CaP deposits, which was validated by visual comparison to brightfield channel images. For compound experiments, an additional upper threshold was set to the minimum threshold of the pos.ctrl images for the respective experiment. Thereby an overly insensitive threshold in images with a high amount of CaP deposition was circumvented. The sum of foreground pixels of the binary image was used to calculate the total area of CaP deposits. The skimage label algorithm was used to label touching foreground regions.
To segment images to single cells the CellMask channel image was first binarized by adaptive thresholding, using a blocksize of 35, followed by median filtering. Binary erosion was performed to shrink the outlines. A version of watershed algorithm was used to segment the whole image into single cells. To this end, the distance transform of the binary erosion image was used as input image and seeds were set to the local maxima of the Hoechst channel image. While this protocol allowed for an approximation of single cell morphology, further improvements of both analytical and experimental staining procedure would be necessary to achieve more accurate results.
Additionally, texture features of calcein and CellMask channel images were extracted. Grey level co-occurrence matrices were calculated using one set offset of 5 pixel and an angle of 90°. Here, the use of larger offsets could improve the detection of changes in large-scale features, e.g. CaP clustering sites. […]

Row | Compound | concentration at which CaP precipitation was promoted [1] [µM] | effect on CaP precipitation / crystallization (in words) [1] | concentration achieving complete inhibition of CaP adhesion [2] [µM] | also measured
1 | O=P(O)(O)OC1[C@@H](OP(=O)(O)O)[C@H](OP(=O)(O)O)C(O)[C@H](OP(=O)(O)O)[C@H]1OP(=O)(O)O (stereo partly drawn) [IP5, myo-inositol pentakisphosphate, reference compound] | 30 |  |  | 
2 | O=P(O)(O)O[C@H]1[C@H](OP(=O)(O)O)[C@@H](OP(=O)(O)O)[C@H](OP(=O)(O)O)[C@@H](OP(=O)(O)O)[C@H]1OP(=O)(O)O [IP6, Phytic acid, reference compound] | 10 |  |  | 
3 | O=S(=O)(O)OC1C(OS(=O)(=O)O)C(OS(=O)(=O)O)C(OS(=O)(=O)O)C(OS(=O)(=O)O)C1OS(=O)(=O)O (stereo not drawn) [IS6, myo-inositol hexasulfate, reference compound] |  | weak inhibitory properties |  | 
4 | COCCOCCO[C@@H]1[C@@H](OP(=O)(O)O)[C@H](OP(=O)(O)O)[C@@H](OP(=O)(O)O)[C@@H](OP(=O)(O)O)[C@H]1OP(=O)(O)O [OEG2-IP5] |  |  | 50 | concentration for complete inhibition of CaP precipitation (>90% reduction of detected CaP precipitates vs control) [1]: 30 µM; concentration for inhibition of CaP aggregation (>50% reduction of mean size of aggregates vs control) [1]: 1 µM
5 | COCCOCCOCCOCCOCCOCCOCCOCCOCCOCCOCCO[C@@H]1[C@@H](OP(=O)(O)O)[C@H](OP(=O)(O)O)[C@@H](OP(=O)(O)O)[C@@H](OP(=O)(O)O)[C@H]1OP(=O)(O)O [OEG11-IP5] |  |  | 50 | aggregation inhibitory concentration (>50% reduction of mean size of aggregates vs control) [1]: 300 nM
6 | cyclohexane hexacarboxylic acid [IC6, reference compound] |  | weak inhibitory properties |  | 
